# Experimental data from patent US9856511B2, “Protease deubiquitinating inhibitor screening” (priority 2011, dated 2018).
# How the values were obtained:
# [1] = test system: isogenic clones of HCT116 colon cancer cells; test: Apoptosis in isogenic HCT116 clones, caspase cleaved cytokeratin-18 ELISA; type: cell-based
# Method: The increase in sub G1 DNA content is associated with (i) activation of the apoptosis mediator caspase-3 and (ii) with cleavage of the caspase substrates poly-ADP ribose polymerase (PARP) and cytokeratin-18. […] Apoptosis induction by bortezomib is dependent on p53 and inhibited by overexpression of the Bcl-2 protein (16,17).
# For determination of apoptosis parental HCT-116 p53+/+ cells were treated with the increasing doses of bortezomib or b-AP15 for 24 h. […] HCT-116 cells were seeded in 96-well microtiter plates at 10,000 cells per well and incubated overnight. Cells were treated with indicated drug for 24 h. At the end of the incubation period, NP40 was added to the tissue culture medium to 0.1% and 25 μl of the content of each well was assayed using the M30-Apoptosense® ELISA as previously described (43). Cell viability was determined by measuring acid phosphatase activity or using the FMCA method (44). For the acid phosphatase activity cells were seeded at 5000 cells per well in 96-well culture plates and incubated for 12 h at 37° C. Compounds were added to the cells in growth media and incubated for 72 h at 37° C. Cells were washed with 200 μl warm PBS. […] Absorbance was measured at 405 nm.
# b-AP15 inhibits degradation of ubiquitin-tagged YFP in a proteasome reporter cell line (FIG. 1a). Levels of ^UbG76V-YFP accumulation were determined by flow cytometry and immunoblotting; immunoblot of ubiquitin conjugation in HCT-116 cells treated with b-AP15 (1 μM) or bortezomib (100 nM) (FIG. 1b). […] Immunoblot of ODC-1 levels in HCT-116 cells following treatment with bortezomib ([…] or b-Ap15 (1 μM) (FIG. 1d); values represent quantified optical density units of ODC-1 normalized to β-actin. Cell cycle profiles of b-AP15 treated HCT-116 cells (FIG. 1e); cells were analyzed by propidium iodide staining and flow cytometry. Levels of caspase activity in isogenic HCT-116 cells as determined by ELISA for caspase cleaved cytokeratin-18 (CK18-Asp398) following treatment with bortezomib (100 nM) or b-AP15 (1 μM) (**′P=0.01, ***′P=0.001) (FIG. 1f). […]
# [2] = test system: HCT116 cells; type: cell-based; details: human
# Source text: These findings indicate that high molecular weight ubiquitin substrate complexes accumulating as a result of DUB inhibition can generate strong cytotoxicity that is insensitive to Bcl-2 over-expression. [table]
smiles,measurement,setting,value
CC(C)C[C@H](NC(=O)[C@H](Cc1ccccc1)NC(=O)c1cnccn1)B(O)O [bortezomib],apoptosis: effect of genetic disruption of BAX or PUMA,[1],bortezomib-induced apoptosis is inhibited
same,Fold induction DNAJB1 (Hsp40B1) mRNA,[2],5 fold
same,Fold induction HSPA1B mRNA,[2],12 fold
same,Fold induction HSPA6 (Hsp70B′) mRNA,[2],60 fold
